US20150087037A1, “FERMENTATION PROCESS” (LanzaTech New Zealand Limited, priority 2013, published 2015)

Experiments:
[1] = system: C. autoethanogenum DSM23693; assay: Linked two reactor (R1, R2) fermentation system, continuous 2-HIBA addition (Examples 2 and 3); format: cell-based, Clostridium autoethanogenum
Experimental: (§1) Fermentations with C. autoethanogenum DSM23693 were carried out in 1.5 L bioreactors at 37° C. The media was prepared according to Table 1. To achieve anaerobicity the reactor vessel was sparged with nitrogen. Prior to inoculation, the gas was switched to either steel mill gas containing H2 (3%), N2 (30%), CO (47%) and CO2 (20%) or pure gases (50% CO, 18-40% CO2, with the balance N2). The gas flow was initially set at 67 ml/min/L, increasing to 200 ml/min during mid-exponential phase, while the agitation was increased from 200 rpm to 800. Na2S was dosed into the bioreactor at 0.25 ml/hr. Once the OD600 reached 1.5, the bioreactor was switched to a continuous mode at a dilution rate of 2.0-1.6 d-l and a bacterial dilution rate of 0.9-0.6 d-l. During continuous mode gas and agitation were adjusted to 900-950 rpm and 800-900 ml/min. Na2S was increased to 1.0 ml/hr.
(§2) Liquid culture samples were taken at differing intervals over the duration of the fermentation. These samples were used to establish the optical density at 600 nm (spectrophotometer) and the level of substrates and products (high performance liquid chromatography—HPLC). HPLC was routinely used to quantify the level of acetate, ethanol and 2,3-butanediol. The input and output gas compositions were analysed using a gas chromatographer (GC), allowing measurement of CO and H2 consumption and CO2 production by the culture.
A two reactor system was used to examine the impact of continuous 2-HIBA addition on the metabolite profile. Initially 0.5 g/L/day (4.8 mM/day) 2-HIBA was added to the R2 only, this increased the production of 2,3-BDO but the ratio only dropped to as low as 1.9:1. Continuous addition of 2-HIBA at 0.5 g/L/day (4.8 mM/day) was then added to the R1. […] This would be achieved by improving the concentration in both the R1 and the R2 as the 2-HIBA is transferred from the R1 to the R2 (through liquid flow) along with improved 2,3-BDO concentrations. The 2,3-BDO concentration increased from 5.7 g/L to 14 g/L in the R1 and from 16 g/L to 21 g/L in the R2 (see FIGS. 3 and 4). The ratio of ethanol:2,3-BDO dropped to 1:1 in the R1 and 1.3:1 in the R2 and remained stable for a period of eight days. The improvement of the ratio was achieved as a result of increased 2,3-BDO concentration and a drop in ethanol production.
Over time the ethanol concentration after the 2-HIBA addition improved whilst the concentration of 2,3-BDO remained stable, this had the effect of improving the total alcohol productivity of the system.
The results achieved in Example 2 were repeated with the aim to improve the overall titre of 2,3-BDO. In this experiment the 2-HIBA concentration was increased to 1 g/L/day (9.6 mM/day).

[2] = system: C. autoethanogenum DSM23693; assay: Fermentation started in the presence of 2-HIBA, impact on growth (Example 5); format: cell-based, Clostridium autoethanogenum
Experimental: as §1, §2
To see if the 2-HIBA impacts negatively on growth a fermentation was started in the presence of 0.05 g/L (0.48 mM) 2-HIBA. During growth gas and agitation were increased so that by day 5.0 the agitation had reached a maximum of 950 rpm and the gas flow 800 ml/min. At this time the dilution rate was 1.8 day^−1 and the bacterial dilution rate 0.85 day^−1.

[3] = system: branch chain amino acid production; assay: Monitoring BCAA production during 2-HIBA addition (Example 7); format: cell-based, Clostridium autoethanogenum; details: FIG. 11
From the text: In order to generate further evidence that 2-HiBA interferes with branch chain amino acid production, the concentrations of these amino acids were monitored directly before and after the addition of 2-HIBA. FIG. 11 illustrates the results; immediately after the addition of 2-HIBA the concentrations of valine, leucine and isoleucine drop as well as biomass.

[4] = system: Clostridium autoethanogenum; assay: Fermentation of gaseous substrate comprising CO with 2-HIBA: general findings and carbon balance; format: cell-based
From the text: Accordingly, the inventors are the first to devise a process for producing high concentrations of 2,3-butanediol through the microbial fermentation of a gaseous substrate comprising CO. In a first stage, a gaseous substrate comprising CO is fed to a bioreactor containing a culture of one or more microorganisms suspending in liquid nutrient media. The gaseous substrate is anaerobically fermented to produce one or more alcohols and/or one or more acids or mixtures thereof. Compounds are provided to the fermentation to alter the metabolite profile of the fermentation.
Carbon balance measurements were performed to confirm the shift to increased 2,3-butanediol production after addition of 2-HIBA.
As the 2-HIBA is not consumed by the fermentation, it is possible to recover 2-HIBA exiting the bioreactor and pass it back to the bioreactor to improve the efficiency of the fermentation.

[5] = R1, average across eight days, 0.5 g/L/day 2-HIBA
[6] = R1, gas data average across eight days, 0.5 g/L/day 2-HIBA
[7] = R2, average across eight days, 0.5 g/L/day 2-HIBA
[8] = R2, gas data average across eight days, 0.5 g/L/day 2-HIBA
[9] = over time after 2-HIBA addition

In the case of `CC(C)(O)C(=O)O` [2-HIBA, 2-hydroxyisobutyric acid], the “impact on CO and hydrogen uptake” value ([1]; 0.5 g/L/day 2-HIBA, FIGS. 5 and 6) is reported as “did not negatively impact”, the “2,3-BDO concentration in R1” value ([1]; 0.5 g/L/day (4.8 mM/day) 2-HIBA added to R1, increased from 5.7 g/L) is reported as 14 g/L and the “impact on gas uptake” value ([1]; 1 g/L/day (9.6 mM/day) 2-HIBA) is reported as “not negatively impacted”. For the same molecule, the “overall 2,3-BDO concentration” value ([1]; 1 g/L/day (9.6 mM/day) 2-HIBA, highest reached, FIG. 7) was 23.9 g/L, the Acetate ([1]; R1, average across eight days of stable operation, 0.5 g/L/day 2-HIBA) was 6.5 g/L and the “2,3 BDO” value [1, 5] was 13.7 g/L. The “2,3 BDO productivity” value [1, 5] was 27 g/L/day, the Biomass [1, 5] was 9.2 g/L and the Ethanol [1, 5] was 14.4 g/L. The Lactate [1, 5] was 0.0 g/L, the CO2 production [1, 6] was 5630 mmol/L and the CO uptake [1, 6] was -8830 mmol/L. For the same molecule, the CO utilisation [1, 6] was 53%, the H2 production [1, 6] was 423 mmol/L and the “2,3 BDO” value [1, 7] was 21.3 g/L. For the same molecule, the “2,3 BDO productivity” value [1, 7] was 16 g/L/day, the Acetate [1, 7] was 7.8 g/L and the Biomass [1, 7] was 15.6 g/L. The Ethanol [1, 7] was 28.3 g/L, the Lactate [1, 7] was 0.0 g/L and the CO2 production [1, 8] was 4932 mmol/L. It also gave a CO uptake [1, 8] of -7930 mmol/L, a CO utilisation [1, 8] of 63% and an H2 production [1, 8] of 413 mmol/L. For the same molecule, the average ethanol concentration ([2]; 0.05 g/L (0.48 mM) 2-HIBA) was 17 g/L, the “impact on the growth of the fermentation” value ([2]; 0.05 g/L (0.48 mM) 2-HIBA in the media from start) was “no impact on the growth” and the “2,3-butanediol concentration” value ([2]; 0.05 g/L (0.48 mM) 2-HIBA, average) was 15.5 g/L. For the same molecule, the “concentrations of valine, leucine and isoleucine and biomass” value ([3]; immediately after the addition of 2-HIBA (100 mg, 0.96 mM)) was “drop”, the concentration of isoleucine [3, 9] was “appears to recover” and the “concentration of leucine and valine” value [3, 9] was “remaining lower than the value before 2-HIBA addition”. For the same molecule, the “2,3-BDO concentration” value ([4]; 2-HIBA at 0.01 g/L-2.0 g/L (0.096 to 19.2 mM)) was “significantly increases”, the “ethanol:2,3-BDO ratio” value ([4]; addition of 2-HIBA) was “significantly improves” and the carbon balance ([4]; before and after addition of 2-HIBA, FIG. 14) was “clear increase in 2,3-butanediol production, accompanied by a decrease in production of ethanol, acetate and biomass”. For the same molecule, the overall fermentation stability ([4]; continuous addition, 0.01 g/L/day-2.0 g/L/day (0.096 to 19.2 mM/day)) was “without affecting overall fermentation stability”.
